{"source": "patent US20160220489A1", "about": "“Intranasal Formulation for the Treatment of Cardiopulmonary Resuscitation (CPR), Cardiac Life Support (CLS), Anaphylaxis and/or Anaphylactoid Reactions” (G2B Pharma Inc., priority 2013, published 2016)", "key": {"[1]": {"details": "cited from earlier work"}, "rabbits": {"test_system": "rabbits", "details": "inhalation in rabbits; cited from earlier work"}, "[2]": {"details": "nasal spray, loading dose 5 mg, normal human subjects; cited from earlier work"}, "[3]": {"description": "Unless otherwise indicated, “primary particle diameter” can refer to the particle size distribution of a powder in its non-aggregated state. Primary particle diameter can be determined using a laser-diffraction particle size distribution analyzer. In some embodiments, the particle size analyzer can be Mastersizer 2000 manufactured by Malvern Instruments Limited.\nUnless otherwise indicated, “median diameter” can refer to a diameter that divides particles into two groups of equal numbers: a group with greater diameters and a group with smaller diameters. A median diameter can be determined using a laser-diffraction particle size distribution analyzer and can correspond to 50% volume in a determined cumulative particle size distribution curve. In some embodiments, the particle size analyzer can be Mastersizer 2000 manufactured by Malvern Instruments Limited.\nData Handling • 1. Using Mastersizer 2000 software, combine particle size distribution data obtained for each dispersion pressure. • 2. If necessary, conduct particle size analysis using Wet Dispersion Method. • 3. Choose the optimum dispersion pressure."}, "rats": {"test_system": "rats", "details": "intramuscular administration in rats; cited from earlier work"}, "MUS": {"test_system": "MUS", "details": "in vivo; cited from earlier work"}, "[4]": {"details": "Dry Dispersion Method, dispersion air pressure 0.5 bar"}, "[5]": {"details": "Dry Dispersion Method, dispersion air pressure 1.0 bar"}, "[6]": {"details": "Dry Dispersion Method, dispersion air pressure 2.0 bar"}, "[7]": {"details": "Dry Dispersion Method, dispersion air pressure 3.0 bar"}, "[8]": {"details": "Dry Dispersion Method, dispersion air pressure 4.0 bar"}}, "note": "Where a name gives a salt, the structure may show the parent alone. Read-outs that look alike come from different tables or passages of the source.", "data": [{"smiles": "C[C@H](CCC(=O)NCCS(=O)(=O)O)[C@H]1CC[C@H]2[C@@H]3CC[C@@H]4C[C@H](O)CC[C@]4(C)[C@H]3C[C@H](O)[C@]12C", "note": "[bile salts, taurodeoxycholic acid]", "values": [{"measurement": "nasal mucosal tissue damage", "setting": "[1]; used as mucosal permeation enhancers (1% taurodeoxycholic acid)", "value": "severe nasal mucosal tissue damage"}]}, {"smiles": "CNC[C@H](O)c1ccc(O)c(O)c1", "note": "[epinephrine]", "values": [{"measurement": "LD50", "setting": "rabbits", "value": 2.5, "unit": "mg/kg"}, {"measurement": "Tmax (peak plasma concentration reached)", "setting": "[2]", "value": "1.17 ± 0.283", "unit": "h"}, {"measurement": "greatest epinephrine plasma concentrations", "setting": "[1]; intranasal 7.5 mg/kg/nostril of epinephrine after […] of phentolamine, dog", "value": "~1,400 ng/mL"}, {"measurement": "Volume under 10%", "setting": "[3]; [4]", "value": 17.8, "unit": "μm"}, {"measurement": "Volume under 50%", "setting": "[3]; [4]", "value": 29.1, "unit": "μm"}, {"measurement": "Volume under 90%", "setting": "[3]; [4]", "value": 45.9, "unit": "μm"}, {"measurement": "Volume under 10%", "setting": "[3]; [5]", "value": 15.5, "unit": "μm"}, {"measurement": "Volume under 50%", "setting": "[3]; [5]", "value": 27.2, "unit": "μm"}, {"measurement": "Volume under 90%", "setting": "[3]; [5]", "value": 43.6, "unit": "μm"}, {"measurement": "Volume under 10%", "setting": "[3]; [6]", "value": 4.8, "unit": "μm"}, {"measurement": "Volume under 50%", "setting": "[3]; [6]", "value": 22.6, "unit": "μm"}, {"measurement": "Volume under 90%", "setting": "[3]; [6]", "value": 41.8, "unit": "μm"}, {"measurement": "Volume under 10%", "setting": "[3]; [7]", "value": 2.7, "unit": "μm"}, {"measurement": "Volume under 50%", "setting": "[3]; [7]", "value": 18.8, "unit": "μm"}, {"measurement": "Volume under 90%", "setting": "[3]; [7]", "value": 38.6, "unit": "μm"}, {"measurement": "Volume under 10%", "setting": "[3]; [8]", "value": 2.4, "unit": "μm"}, {"measurement": "Volume under 50%", "setting": "[3]; [8]", "value": 18.2, "unit": "μm"}, {"measurement": "Volume under 90%", "setting": "[3]; [8]", "value": 38.3, "unit": "μm"}, {"measurement": "Volume under 10%", "setting": "[3]; Wet Dispersion Method", "value": 18.1, "unit": "μm"}, {"measurement": "Volume under 50%", "setting": "[3]; Wet Dispersion Method", "value": 31.2, "unit": "μm"}, {"measurement": "Volume under 90%", "setting": "[3]; Wet Dispersion Method", "value": 50.7, "unit": "μm"}, {"measurement": "LD50", "setting": "rats", "value": 3500, "unit": "mg/kg"}]}, {"smiles": "Cc1ccc(N(CC2=NCCN2)c2cccc(O)c2)cc1", "note": "[phentolamine]", "values": [{"measurement": "IVN-MUS LD50", "setting": "MUS", "value": 75, "unit": "mg/kg"}]}]}
